Measurements published in PubChem BioAssay (NCI).
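Following 48 hours of exposure in 96-well plates, responses at five concentrations were used to interpolate endpoints linearly. TGI: total growth inhibition.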

Tests used:
Assay in all cases: DTP human tumour cell line panel, 48 h
NCI-H522 lung = tested on: NCI-H522 lung
TK-10 renal = tested on: TK-10 renal
SK-MEL-2 melanoma = tested on: SK-MEL-2 melanoma
EKVX NSCLC = tested on: EKVX NSCLC
CAKI-1 renal = tested on: CAKI-1 renal
SK-MEL-28 melanoma = tested on: SK-MEL-28 melanoma
KM12 colon = tested on: KM12 colon
SN12C renal = tested on: SN12C renal
786-0 renal = tested on: 786-0 renal
IGROV1 ovarian = tested on: IGROV1 ovarian
M14 melanoma = tested on: M14 melanoma
T-47D breast = tested on: T-47D breast
U251 CNS = tested on: U251 CNS
ACHN renal = tested on: ACHN renal
MDA-MB-435 = tested on: MDA-MB-435
MCF7 breast = tested on: MCF7 breast
DU-145 prostate = tested on: DU-145 prostate
HCT-15 colon = tested on: HCT-15 colon
SF-539 CNS = tested on: SF-539 CNS
HOP-62 NSCLC = tested on: HOP-62 NSCLC
HCC-2998 colon = tested on: HCC-2998 colon
HS 578T breast = tested on: HS 578T breast
RXF 393 renal = tested on: RXF 393 renal
OVCAR-4 ovarian = tested on: OVCAR-4 ovarian
OVCAR-8 ovarian = tested on: OVCAR-8 ovarian
MALME-3M melanoma = tested on: MALME-3M melanoma
BT-549 breast = tested on: BT-549 breast
SK-OV-3 ovarian = tested on: SK-OV-3 ovarian
OVCAR-5 ovarian = tested on: OVCAR-5 ovarian
MDA-MB-231 breast = tested on: MDA-MB-231 breast
HCT-116 colon = tested on: HCT-116 colon
OVCAR-3 ovarian = tested on: OVCAR-3 ovarian
NCI-H23 lung = tested on: NCI-H23 lung
SK-MEL-5 melanoma = tested on: SK-MEL-5 melanoma
SW-620 colon = tested on: SW-620 colon
PC-3 prostate = tested on: PC-3 prostate
LOX IMVI melanoma = tested on: LOX IMVI melanoma
A549 NSCLC = tested on: A549 NSCLC
COLO 205 colon = tested on: COLO 205 colon
NCI/ADR-RES ovarian = tested on: NCI/ADR-RES ovarian
MOLT-4 leukemia = tested on: MOLT-4 leukemia
SNB-19 CNS = tested on: SNB-19 CNS
UACC-257 melanoma = tested on: UACC-257 melanoma
K-562 leukemia = tested on: K-562 leukemia
NCI-H226 lung = tested on: NCI-H226 lung
UO-31 renal = tested on: UO-31 renal
SF-295 CNS = tested on: SF-295 CNS
CCRF-CEM leukemia = tested on: CCRF-CEM leukemia
SF-268 CNS = tested on: SF-268 CNS

## COc1cc([C@@H]2c3cc4c(cc3[C@@H](Nc3ccccc3C(=O)c3ccccc3)[C@H]3COC(=O)[C@H]23)OCO4)cc(OC)c1OC
NCI-H522 lung
  TGI: 2.07 µM
TK-10 renal
  TGI: > 100 µM
SK-MEL-2 melanoma
  TGI: > 100 µM
EKVX NSCLC
  TGI: > 100 µM
CAKI-1 renal
  TGI: > 100 µM
SK-MEL-28 melanoma
  TGI: > 100 µM
KM12 colon
  TGI: 0.653 µM
SN12C renal
  TGI: > 100 µM
786-0 renal
  TGI: > 100 µM
IGROV1 ovarian
  TGI: 90.5 µM
M14 melanoma
  TGI: > 53.7 µM
T-47D breast
  TGI: > 100 µM
U251 CNS
  TGI: 0.979 µM
ACHN renal
  TGI: > 100 µM
MDA-MB-435
  TGI: 1.26 µM
MCF7 breast
  TGI: > 100 µM
DU-145 prostate
  TGI: > 100 µM
HCT-15 colon
  TGI: 1.18 µM
SF-539 CNS
  TGI: 0.638 µM
HOP-62 NSCLC
  TGI: > 100 µM
HCC-2998 colon
  TGI: > 28.7 µM
HS 578T breast
  TGI: > 100 µM
RXF 393 renal
  TGI: > 100 µM
OVCAR-4 ovarian
  TGI: > 100 µM
OVCAR-8 ovarian
  TGI: > 38.3 µM
MALME-3M melanoma
  TGI: > 100 µM
BT-549 breast
  TGI: > 100 µM
SK-OV-3 ovarian
  TGI: > 100 µM
OVCAR-5 ovarian
  TGI: > 100 µM
MDA-MB-231 breast
  TGI: > 66.1 µM
HCT-116 colon
  TGI: > 100 µM
OVCAR-3 ovarian
  TGI: > 100 µM
NCI-H23 lung
  TGI: > 100 µM
SK-MEL-5 melanoma
  TGI: 2.93 µM
SW-620 colon
  TGI: > 81.6 µM
PC-3 prostate
  TGI: > 78.7 µM
LOX IMVI melanoma
  TGI: > 100 µM
A549 NSCLC
  TGI: > 100 µM
COLO 205 colon
  TGI: 1.42 µM
NCI/ADR-RES ovarian
  TGI: > 100 µM
MOLT-4 leukemia
  TGI: > 100 µM
SNB-19 CNS
  TGI: > 100 µM
UACC-257 melanoma
  TGI: > 100 µM
K-562 leukemia
  TGI: > 100 µM
NCI-H226 lung
  TGI: > 100 µM
UO-31 renal
  TGI: > 100 µM
SF-295 CNS
  TGI: > 100 µM
CCRF-CEM leukemia
  TGI: > 100 µM
SF-268 CNS
  TGI: > 100 µM
